Data reported in ChEMBL document CHEMBL1155980, “Prenyloxyphenylpropanoids as a novel class of anticonvulsive agents” (2009).
Active and inactive are the calls of the source. The rule behind the calls is not given here.

Legend:
Mus musculus [1] = experiment: Anticonvulsant activity in mouse at 300 mg/kg, ip after 5 mins by MES test; format: functional, organism-based; set-up: dose 300 mg/kg
Mus musculus [2] = experiment: Anticonvulsant activity in mouse at 300 mg/kg, ip after 15 mins by MES test; format: functional, organism-based; set-up: dose 300 mg/kg
Mus musculus [3] = experiment: Anticonvulsant activity in mouse at 300 mg/kg, ip after 30 mins by MES test; format: functional, organism-based; set-up: dose 300 mg/kg
Mus musculus [4] = experiment: Anticonvulsant activity in mouse at 300 mg/kg, ip after 60 mins by MES test; format: functional, organism-based; set-up: dose 300 mg/kg
Mus musculus [5] = experiment: Anticonvulsant activity in mouse at 300 mg/kg, ip after 120 mins by MES test; format: functional, organism-based; set-up: dose 300 mg/kg
Mus musculus [6] = species: Mus musculus; experiment: Anticonvulsant activity in mouse after 5 mins by MES test; format: functional
Mus musculus [7] = species: Mus musculus; experiment: Anticonvulsant activity in mouse after 15 mins by MES test; format: functional; conditions: 0.25 h
Mus musculus [8] = species: Mus musculus; experiment: Anticonvulsant activity in mouse after 30 mins by MES test; format: functional; conditions: 0.5 h
Mus musculus [9] = species: Mus musculus; experiment: Anticonvulsant activity in mouse after 60 mins by MES test; format: functional; conditions: 1 h
Thoracic aorta = experiment: Muscle relaxant activity in rat thoracic aorta assessed as inhibition of KCl-induced contraction at 100 uM; format: functional

SMILES | Activity (Mus musculus [1]) | Activity (Mus musculus [2]) | Activity (Mus musculus [3]) | Activity (Mus musculus [4]) | Activity (Mus musculus [5]) | ED50 (Mus musculus [6]) [mg/kg] | ED50 (Mus musculus [7]) [mg/kg] | ED50 (Mus musculus [8]) [mg/kg] | ED50 (Mus musculus [9]) [mg/kg] | inhibition at 100 µM (Thoracic aorta) [%]
COc1c(OCC=C(C)C)ccc2ccc(=O)oc12 | inactive | inactive | inactive | inactive | inactive | – | – | – | – | –
COc1c(OC/C=C(\C)CCC=C(C)C)ccc2ccc(=O)oc12 | – | inactive | inactive | inactive | inactive | – | – | – | – | –
CC(C)=CCC/C(C)=C/COc1ccc(/C=C/C(=O)O)cc1 | inactive | inactive | inactive | inactive | inactive | – | – | – | – | –
CC(C)=CCOc1ccc(CCC(=O)O)cc1 | inactive | inactive | inactive | inactive | inactive | – | – | – | – | –
CC(C)=CCC/C(C)=C/COc1ccc(C(=O)/C=C/c2ccc(O)cc2)c(O)c1 | inactive | inactive | inactive | inactive | inactive | – | – | – | – | –
CC(C)=CCOc1ccc(/C=C/C(=O)O)cc1 | Active | Active | – | – | inactive | 228 | 262 | 312 | > 350 | –
CC(=O)c1ccc(OCC=C(C)C)cc1O | inactive | inactive | inactive | inactive | inactive | – | – | – | – | –
COc1cc(/C=C/C(=O)O)ccc1OCC=C(C)C | inactive | inactive | inactive | inactive | inactive | – | – | – | – | –
COc1cc(C(=O)O)ccc1OCC=C(C)C | inactive | inactive | inactive | inactive | inactive | – | – | – | – | –
CC(C)=CCOc1ccc(C(=O)/C=C/c2ccccc2)c(O)c1 | inactive | inactive | inactive | inactive | inactive | – | – | – | – | –
CC(C)=CCOc1ccc2ccc(=O)oc2c1 [7-PRENYLOXYCOUMARIN] | Active | Active | Active | – | inactive | > 350 | 238 | 221 | > 350 | 80
CC(=O)c1ccc(OC/C=C(\C)CCC=C(C)C)cc1O | inactive | inactive | inactive | inactive | inactive | – | – | – | – | –
CC(C)=CCOc1ccc2ccc(=O)oc2c1O | – | – | inactive | inactive | inactive | – | – | – | – | –
CC(C)=CCC/C(C)=C/COc1ccc2ccc(=O)oc2c1 | inactive | inactive | inactive | inactive | – | – | – | – | – | –
COc1cc(C(=O)O)ccc1OC/C=C(\C)CCC=C(C)C | inactive | inactive | inactive | inactive | inactive | – | – | – | – | –
CC(C)=CCOc1ccc(C(=O)/C=C/c2ccc(O)cc2)c(O)c1 | inactive | inactive | inactive | inactive | inactive | – | – | – | – | –
COc1cc(/C=C/C(=O)O)ccc1OC/C=C(\C)CCC=C(C)C | – | Active | Active | – | inactive | 225 | 224 | 224 | > 350 | –
